Experiments:
[1] = Luminescence restoration on adding excess macrocyclic receptor 3 to quantum dots and quencher 1; assay type: binding; settings: quantum dots 1.5 μM, 1 4.1 μM, 3 21 μM, pH=7.8, 20° C.
Experimental: (§1) The emission spectra (λEx=350 nm) of the same solution were recorded before (b) and after the consecutive addition of 1 (c, 4.1 μM) and 3 (d, 21 μM). Also shown is a Stern-Volmer plot (e) of hydrophilic CdSe—ZnS core-shell quantum dots (1.5 μM, sodium phosphate buffer, pH=7.8, 20° C., λEx=350 nm) upon addition of increasing amounts of 1.
The change imposed on the luminescence of the hydrophilic quantum dots by the quencher 1 can be reversed with the addition of an excess of cucurbituril (3 in FIG. 3). Indeed, this particular macrocyclic receptor is known to bind bipyridinium dications with high association constants in aqueous solutions.^36-39 Consistently, the emission spectrum (d in FIG. 2) recorded in the presence of an excess of 3 relative to 1 closely resembles the one recorded before the addition of 1 (b). The infrared spectra recorded before (b in FIG. 4) and after (c in FIG. 4) treatment of the CdSe—ZnS core-shell quantum dots with mercaptoacetic acid and potassium hydroxide show the disappearance of the [C—H] stretching vibrations at 2800 cm^−1 to […] (a) for hydrophobic ligands and the appearance of the [C═O] stretching vibrations at 1300 cm^−1 to 1700 cm^−1 (d) for the hydrophilic ones. […] In principle, the very same mechanism can be adapted to signal receptor-ligand interactions with changes in luminescence. […]

[2] = Stern-Volmer quenching of quantum dot luminescence by bipyridinium quenchers; assay type: binding; settings: for Stern-Volmer constant: linear (static) region of plot, quantum dots 1.5 μM, sodium phosphate buffer, pH=7.8, 20° C., λEx=350 nm
Experimental: as §1
(§2) Also shown is a Stern-Volmer plot (d) of hydrophilic CdSe—ZnS core-shell quantum dots (1.5 μM, sodium phosphate buffer, pH=7.8, 20° C., λEx=350 nm) after addition of increasing amounts of 2.
Indeed, bipyridinium dications are known to accept electrons from excited CdSe and CdSe—ZnS core-shell quantum dots, quenching their luminescence.36-37 The corresponding Stern-Volmer plot (e in FIG. 2) deviated from linearity at quencher concentrations greater than about 2.5 μM. […] These observations are consistent with the adsorbance of the dicationic quencher on the surface of the hydrophilic quantum dots as a result of electrostatic interactions with their anionic carboxylate groups.
In order to test the potential of our operating principles to signal receptor-ligand interactions, we designed a compound (2 in FIG. 3) integrating a bipyridinium quencher and a biotin ligand within the same molecular skeleton and prepared this molecule in two synthetic steps (see FIG. 6). Once again, the luminescence of the hydrophilic quantum dots decreases upon exposure to 2 (a and b in FIG. 7) (the addition of either 1 or 2 to a solution of the quantum dots has no influence on the visible region of the absorption spectrum). […]
(§3) Methods. […] Infrared absorption spectra were recorded with a Perkin-Elmer Spectrum One Fourier transform spectrometer. Visible absorption spectra were recorded with a Varian Cary 100 Bio spectrometer, using quartz cells with a path length of 0.5 cm. Emission spectra were recorded with a Varian Cary Eclipse spectrometer in aerated solutions. Fast atom bombardment mass spectra (FABMS) were recorded with a VG Mass Lab Trio-2 in a 3-nitrobenzyl alcohol matrix. […]

bovine serum albumin = target: T1, bovine serum albumin (Bos taurus, UniProt P02769); test: Specificity control: bovine serum albumin added to quantum dots and 2; assay type: binding; settings: quantum dots 1.5 μM, 2 4.1 μM, bovine serum albumin 7.4 μM, pH=7.8, 20° C.
T1 construct: purchased
From the text: (§4) The addition of increasing amounts of streptavidin to a mixture of the hydrophilic quantum dots and 2 leads to a luminescence enhancement (c in FIG. 7). The addition of 3, streptavidin or bovine serum albumin to a solution of the hydrophilic quantum dots has no influence on the emission spectrum in the absence of bipyridinium quenchers. Instead, the addition of bovine serum albumin has no influence of the emission spectrum under otherwise identical conditions (FIG. 8). […] The luminescence increases only by 30% after the association of 2 and streptavidin, while it grows by 80% after the interaction of 1 and 3. […] Presumably, an adjustment in the length of the aliphatic spacer connecting the quencher to the ligand in 2 can be invoked to improve the luminescence enhancement upon streptavidin binding.
Methods. […] Infrared absorption spectra were recorded with a Perkin-Elmer Spectrum One Fourier transform spectrometer. Visible absorption spectra were recorded with a Varian Cary 100 Bio spectrometer, using quartz cells with a path length of 0.5 cm. Emission spectra were recorded with a Varian Cary Eclipse spectrometer in aerated solutions. Fast atom bombardment mass spectra (FABMS) were recorded with a VG Mass Lab Trio-2 in a 3-nitrobenzyl alcohol matrix. Nuclear magnetic resonance (NMR) spectra were recorded with Bruker Avance 400 and 500 spectrometers.

streptavidin = target: T2, streptavidin (Streptomyces avidinii, UniProt P22629); test: Luminescence enhancement on adding streptavidin to quantum dots and quencher-biotin 2; assay type: binding; settings: quantum dots 1.5 μM, 2 4.1 μM, streptavidin 21 μM (large excess), pH=7.8, 20° C.
T2 construct: purchased
Experimental: as §2, §4
as §3, with “solutions.” for “solutions. Fast atom bombardment mass spectra (FABMS) were recorded with a VG Mass Lab Trio-2 in a 3-nitrobenzyl alcohol matrix.”

[3] = Control: receptor added to quantum dots without bipyridinium quenchers; settings: in the absence of bipyridinium quenchers

T2 sequence (P22629 25-183, species assumed): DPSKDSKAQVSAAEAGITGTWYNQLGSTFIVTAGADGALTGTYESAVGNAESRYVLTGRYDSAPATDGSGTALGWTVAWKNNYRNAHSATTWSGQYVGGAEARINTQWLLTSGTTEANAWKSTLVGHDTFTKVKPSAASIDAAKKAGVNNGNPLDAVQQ
T1 sequence (P02769 25-607): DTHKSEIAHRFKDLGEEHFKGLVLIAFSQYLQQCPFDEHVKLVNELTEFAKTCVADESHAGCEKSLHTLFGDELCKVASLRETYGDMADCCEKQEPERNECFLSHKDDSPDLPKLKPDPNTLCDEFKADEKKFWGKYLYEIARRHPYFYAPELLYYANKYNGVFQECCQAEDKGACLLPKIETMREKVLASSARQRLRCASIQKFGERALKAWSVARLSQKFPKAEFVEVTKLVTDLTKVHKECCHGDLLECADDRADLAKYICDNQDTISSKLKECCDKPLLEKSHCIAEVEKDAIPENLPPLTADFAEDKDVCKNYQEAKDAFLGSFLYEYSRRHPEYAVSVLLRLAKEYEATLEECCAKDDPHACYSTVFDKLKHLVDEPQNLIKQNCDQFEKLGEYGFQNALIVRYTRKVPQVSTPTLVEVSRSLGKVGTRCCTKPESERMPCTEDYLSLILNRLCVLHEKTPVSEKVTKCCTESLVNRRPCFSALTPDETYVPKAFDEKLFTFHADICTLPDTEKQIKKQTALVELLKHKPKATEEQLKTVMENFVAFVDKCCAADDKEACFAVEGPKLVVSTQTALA

Compound | Stern-Volmer constant [2] | effect on the emission spectrum of the quantum dots [3] | other results
C[n+]1ccc(-c2cc[n+](C)cc2)cc1 [compound 1, methyl viologen, reference compound] | about 0.45 μM^−1 |  | luminescence increase after interaction with 3 [1]: 80%
C[n+]1ccc(-c2cc[n+](CCCOCCCCCC3SCC4NC(=O)NC43)cc2)cc1.[I-].[I-] (stereo not drawn) [compound 2, 1-Methyl-1′-(3-(5-(2-Oxohexahydrothieno[3,4-d]imidazol-6-yl)-pentanoxy)-propyl)-4,4′-Bipyridinium Bisiodide] | about 0.22 μM^−1 |  | effect of bovine serum albumin on the emission spectrum (bovine serum albumin): no influence; luminescence increase after association with streptavidin (streptavidin): 30%; decrease in the Stern-Volmer constant relative to 1 ([2]; same conditions as the Stern-Volmer plots): about 0.23 μM^−1
O=C1N2CN3C(=O)N4CN5C(=O)N6CN7C(=O)N8CN9C(=O)N%10CN%11C(=O)N%12CN1C1C2N2CN%13C(=O)N(CN%14C(=O)N(CN%15C(=O)N(CN%16C(=O)N(CN%17C(=O)N(CN1C2=O)C%12C%11%17)C%10C9%16)C8C7%15)C6C5%14)C4C3%13 (stereo not drawn) [compound 3, cucurbituril, reference compound] |  | no influence | 
bovine serum albumin: control protein that does not bind biotin |  | no influence | 
streptavidin: protein receptor that binds the biotin ligand of 2 |  | no influence | 

Source: patent US8198099B2, “Mechanism to signal receptor-ligand interactions with luminescent quantum dots” (The University of Miami, priority 2006, dated 2012)
